Here are results for two compounds from paper PMC7557582, “Broad-Spectrum Antimicrobial Activity and Improved Stability of a D-Amino Acid Enantiomer of DMPC-10A, the Designed Derivative of Dermaseptin Truncates” (Antibiotics, 2020).

Assay [1] relates to K. pneumoniae (ATCC 43816). Format: cell-based, Klebsiella pneumoniae. As to conditions: K. pneumoniae (ATCC 43816); broth-dilution, MHB pH 7.4, 37 °C; positive control.
Description: (§1) Gram-positive bacteria Staphylococcus aureus (NCTC 10788) and Enterococcus faecalis (NCTC 12697) and Gram-negative bacteria Escherichia coli (NCTC 10418), Pseudomonas aeruginosa (ATCC 27853), and Klebsiella pneumoniae (ATCC 43816) were tested. […] All the bacterial strains were inoculated in Mueller Hinton broth (MHB), pH 7.4 (Oxiod, Basingstoke, UK) at 37 °C. Then, the log-phase bacteria were mixed with the peptide at the concentrations from 512 to 1 µM in two-fold dilution, in a 96 well-plate. The wells contained sterilized MHB and bacteria cultures were employed as a blank and growth control, respectively.
In assay [2] the test system is P. aeruginosa (ATCC 27853). Format: cell-based, Pseudomonas aeruginosa. The following applies: P. aeruginosa (ATCC 27853); broth-dilution, MHB pH 7.4, 37 °C; positive control.
Description: as §1
Another assay has as its system E. faecalis (NCTC 12697). Format: cell-based, Enterococcus faecalis. As to conditions: E. faecalis (NCTC 12697); broth-dilution, MHB pH 7.4, 37 °C; positive control.
Assay [3] has as its system K. pneumoniae (ATCC BAA 2342). The class given is cell-based, Klebsiella pneumoniae. The following applies: K. pneumoniae (ATCC BAA 2342); broth-dilution, MHB pH 7.4, 37 °C; positive control.
Description: as §1
Another assay concerns S. aureus (NCTC 10788). The class given is cell-based, Staphylococcus aureus. The following applies: S. aureus (NCTC 10788); broth-dilution, MHB pH 7.4, 37 °C; positive control.
For assay [4], the system named is K. pneumoniae (ATCC BAA 1705). The class given is cell-based, Klebsiella pneumoniae. As to conditions: K. pneumoniae (ATCC BAA 1705); broth-dilution, MHB pH 7.4, 37 °C; positive control.
Description: as §1
The test system of another assay is MRSA (NCTC 12493). Format: cell-based, methicillin-resistant S. aureus. As to conditions: MRSA (NCTC 12493); broth-dilution, MHB pH 7.4, 37 °C; positive control.
A further assay has as its system E. coli (NCTC 10418). Format: cell-based, Escherichia coli. The following applies: E. coli (NCTC 10418); broth-dilution, MHB pH 7.4, 37 °C; positive control.

Description for E. coli (NCTC 10418): as §1
Description for E. faecalis (NCTC 12697): as §1
Description for MRSA (NCTC 12493): as §1
Description for S. aureus (NCTC 10788): as §1

Regarding `CCn1cc(C(=O)O)c(=O)c2cc(F)c(N3CCNCC3)cc21` [Norfloxacin, reference compound], the MIC of antibiotic in assay [1] is given as 2/6.26 µg/mL; in assay [2] it was 2/6.26 µg/mL; in the assay with E. faecalis (NCTC 12697), 4/12.53 µg/mL; in assay [3], >32/>100.21 µg/mL; in the assay with S. aureus (NCTC 10788) it was 2/6.26 µg/mL; in assay [4], >32/>100.21 µg/mL. Further, the MIC of antibiotic is 2/6.26 µg/mL with MRSA (NCTC 12493) and 1/3.13 µg/mL with E. coli (NCTC 10418).
In the case of `CN[C@H](CC(C)C)C(=O)N[C@H]1C(=O)N[C@@H](CC(N)=O)C(=O)N[C@H]2C(=O)N[C@H]3C(=O)N[C@H](C(=O)N[C@H](C(=O)O)c4cc(O)cc(O)c4-c4cc3ccc4O)[C@H](O)c3ccc(c(Cl)c3)Oc3cc2cc(c3O[C@@H]2O[C@H](CO)[C@@H](O)[C@H](O)[C@H]2O[C@H]2C[C@](C)(N)[C@H](O)[C@H](C)O2)Oc2ccc(cc2Cl)[C@H]1O` [Vancomycin, reference compound], the MIC of antibiotic in the assay on E. faecalis (NCTC 12697) is 1/0.69 µg/mL; in the assay on S. aureus (NCTC 10788), 0.125/0.08 µg/mL; in the assay with MRSA (NCTC 12493) it was 0.125/0.08 µg/mL.
